The source of these data is patent publication US20140248635A1, “ALPHA-TUBULIN […]” (University of Georgia Research Foundation, Inc., priority 2010, published 2014).

One data set deals with zebrafish embryos. In words: Phenotypes of live zebrafish embryos at 48 hpf after morpholino injection. Type of data set: in vivo. An excerpt:
(§1) To disrupt the MEC-17 gene in Tetrahymena, we used homologous DNA recombination with a fragment carrying the neo4 marker that replaced the coding region. MEC-17 was overexpressed in Tetrahymena using the MTT1 cadmium-dependent promoter. In C. elegans, MEC-12-K40, MEC-12-Q40, and MEC-12-R40 transgenes were introduced into a single site on chromosome II in the EG4322 strain. Animals homozygous for a MEC-12 transgene and homozygous for the mec-12(e1607) allele were obtained by standard crosses. All touch sensation assays in C. elegans were done using blind scoring. To deplete human MEC-17 (C6Orf134) mRNA in Hela cells, we introduced MEC-17-specific siRNAs (ON-TARGETplus pool, Dharmacon) using Oligofectamine (Invitrogen). To knockdown mec17 expression in zebrafish, MOs designed to target the MEC-17 mRNA (Open Biosystems) were injected into early embryos. ATG-MEC17 MO targets the translation initiation site of mec17 mRNA. SP-MEC17 MO targets the exon3/intron3-4 splice junction, and is expected to result in an aberrant splicing isoform of exon2 to exon 4, producing a frameshift mutation and associated protein truncation. As a negative control, we injected MO with a random sequence (oligo-25N, Gene Tools) or a 5 bp mismatch to the ATG-MEC17 MO. Live embryos were scored for phenotypes at 48 hpf. To produce a recombinant MEC-17 protein, the cDNA sequence of the murine MEC-17 (BF135007, Open Biosystems) was subcloned into pGEX-3× plasmid (GE Healthcare), expressed in BL21 E. coli cells as a GST fusion and purified using GST-Bind kit (Novagen). The in vitro acetylation assays were performed in 50 mM Tris-HCl pH 8.0, 10 mM glycerol, 0.1 mM EDTA, with purified Tetrahymena MEC-17-KO axonemes or tubulin (purified using DEAE chromatography), recombinant GST-MmMEC-17 enzyme and 10 μM acetyl-CoA. The reaction was detected by western blotting using anti-acetyl-K antibodies.
ATG-MEC17 targets the translation initiation site of MEC-17 mRNA. SP-MEC17 MO targets the exon3/intron3-4 splice junction, and is expected to result in an aberrantly spliced isoform in which exon2 is joined to exon 4. The predicted transcript contains a frameshift mutation and encodes a nonsense protein. As a negative control we injected MO with a random sequence (oligo-25N, Gene Tools) or a 5 bp mismatch to the ATG-MEC17 MO (5′-CATTgAcGTCcTAAGGcAAATgCAT-3′; SEQ ID NO:9). Live embryos were scored for phenotypes at 48 hpf, or fixed processed for immunofluorescence as described (Wloga et al., 2009 Dev Cell 16:867-876). The antibodies were used in the following concentrations: 6-11 B-1 mAb (1:1000), Znp-1 anti-synaptotagmin 1 mAb (1:100). After incubation with secondary antibodies (Zymed) overnight at 4° C. (1:500) embryos were mounted in 100 mg/ml of DABCO (Sigma-Aldrich) in PBS and viewed in a Leica TCS SP confocal microscope. Live zebrafish morphants shown in videos S1-S3 were recorded using on the Zeiss Stemi SV11 Apo microscope and a SPOT FLEX camera (Diagnostic Instruments Inc.) at 12 frames per second.

The target of the next data set is T1, HDAC6 (Homo sapiens, UniProt Q9UBN7).
T1 sequence (Q9UBN7 1-1215): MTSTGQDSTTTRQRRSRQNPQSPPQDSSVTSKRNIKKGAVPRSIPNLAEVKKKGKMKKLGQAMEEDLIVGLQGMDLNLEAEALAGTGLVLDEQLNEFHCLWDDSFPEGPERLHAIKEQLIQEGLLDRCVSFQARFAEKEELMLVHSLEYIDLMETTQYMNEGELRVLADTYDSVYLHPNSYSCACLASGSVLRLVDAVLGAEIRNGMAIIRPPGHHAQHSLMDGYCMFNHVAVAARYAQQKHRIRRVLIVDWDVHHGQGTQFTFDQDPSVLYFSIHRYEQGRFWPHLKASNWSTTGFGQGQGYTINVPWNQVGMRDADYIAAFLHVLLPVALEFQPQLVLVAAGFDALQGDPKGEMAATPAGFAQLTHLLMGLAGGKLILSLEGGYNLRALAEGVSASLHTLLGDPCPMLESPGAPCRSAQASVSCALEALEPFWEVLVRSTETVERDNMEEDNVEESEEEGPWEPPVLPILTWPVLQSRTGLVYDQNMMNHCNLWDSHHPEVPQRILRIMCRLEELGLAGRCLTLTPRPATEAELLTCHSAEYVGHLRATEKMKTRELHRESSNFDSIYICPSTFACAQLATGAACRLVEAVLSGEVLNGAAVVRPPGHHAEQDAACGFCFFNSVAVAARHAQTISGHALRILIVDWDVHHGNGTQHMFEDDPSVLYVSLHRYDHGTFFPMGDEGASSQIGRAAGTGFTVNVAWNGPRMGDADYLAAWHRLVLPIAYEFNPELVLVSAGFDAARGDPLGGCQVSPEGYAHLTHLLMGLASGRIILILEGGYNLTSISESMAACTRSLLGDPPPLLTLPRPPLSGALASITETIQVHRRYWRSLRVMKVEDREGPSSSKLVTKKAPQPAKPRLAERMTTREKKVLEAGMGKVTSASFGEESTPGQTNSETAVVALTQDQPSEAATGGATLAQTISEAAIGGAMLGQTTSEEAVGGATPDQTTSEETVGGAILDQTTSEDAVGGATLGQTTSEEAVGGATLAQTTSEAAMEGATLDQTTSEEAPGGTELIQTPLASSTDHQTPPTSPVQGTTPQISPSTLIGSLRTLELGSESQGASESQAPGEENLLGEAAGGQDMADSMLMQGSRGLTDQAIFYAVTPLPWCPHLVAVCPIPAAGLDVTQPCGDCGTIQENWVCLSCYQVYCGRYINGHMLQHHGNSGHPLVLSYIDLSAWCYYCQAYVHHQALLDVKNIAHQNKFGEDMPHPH
Particulars: cited from earlier work.

The next data set deals with GST-MmMEC-17. The data set is described as follows: In vitro tubulin acetyltransferase assay: effect of added agents on MEC-17 activity. The data set is classed as biochemical, murine. Particulars: purified MEC17-KO tubulin or axonemes, acetyl-CoA.
Excerpt: as §1, with “To produce a recombinant MEC-17 protein, the cDNA sequence of the murine MEC-17 (BF135007, Open Biosystems) was subcloned into pGEX-3× plasmid (GE Healthcare), expressed in BL21 E. coli cells as a GST fusion and purified using GST-Bind kit (Novagen). The in vitro acetylation assays were performed in 50 mM Tris-HCl pH 8.0, 10 mM glycerol, 0.1 mM EDTA, with purified Tetrahymena MEC-17-KO axonemes or tubulin (purified using DEAE chromatography), recombinant GST-MmMEC-17 enzyme and 10 μM acetyl-CoA.” left out, “antibodies. […]” for “antibodies.”

The subject of data set [1] is MEC-17-KO Tetrahymena cells. The data set is described as follows: Response of Tetrahymena strains to microtubule drugs (growth, axonemes). Particulars: MEC-17-KO vs wild type. The data set is classed as cell-based. As for the experimental part:
Cells were suspended at 10^5 cell/ml in SPP medium and incubated with the drug for 22 hr at 30° C. and the cell density was determined.

Another data set concerns mec17 mRNA. The data set is described as follows: RT-PCR of mec17 mRNA in morpholino-injected embryos. Type of data set: in vivo, zebrafish. Particulars: RT-PCR exon 1 to exon 5. As to the method: Total cDNA was made using randomly-primed mRNA isolated from either control (WT) or embryos injected with 5 bp mismatch MO (MIS), ATG-MO (ATG), or splice-site MO (SP), and amplified using either primers corresponding to the coding sequence of the β-actin gene (top panel) or primers that correspond to the sequence of mec17 between exon 1 and exon 5 (bottom panel). As controls, amplifications were performed on samples that lacked reverse transcriptase (−RT). Note that the β-actin gene primers gave a robust product of the expected size (100 bp) for all +RT samples (top).
For RT-PCR, mRNA was isolated from 70 embryos 24 hpf using TRIzol reagent (Invitrogen, Carslbad, Calif.), and total cDNA was synthesized using iScript cDNA synthesis kit (Bio-Rad Laboratories, Hercules, Calif.). The sequences of primers used to amplify the mec17 cDNA were: MEC17EX1F 5′-[…]-3′ (SEQ ID NO:10) and MEC17EX5R2 5′-[…]-3′ (SEQ ID NO:11). The forward primer binds to exon 1 and the reverse primer binds to exon 5 (the splice blocking morpholino binds to the junction between exon 3 and the intron 3-4). For the control amplification of β-actin cDNA, we used the following primers: 5′-[…]-3′ (SEQ ID NO:12) and 5′-[…]-3′ (SEQ ID NO:13).

Turning to “ATG MIS MO: negative control MO, 5 bp mismatch to the ATG-MEC17 MO, 5′-CATTgAcGTCcTAAGGcAAATgCAT-3′ (SEQ ID NO:9) (CATTGACGTCCTAAGGCAAATGCAT; all phosphorodiamidate morpholino (PMO)) [reference compound]”, in the data set on zebrafish embryos (Table 2, 1 ng MO, 48 hpf), the “Edema of the heart (frequency of phenotype)” value (“Edema of the heart” below) came out at 3.8%, the “Hydrocephaly (frequency of phenotype)” value was found to be 0%, the “Lethality (frequency of phenotype)” value was 2.5% and the “Mobility: reduced mobility” value came out at 2.5% reduced mobility. For the same compound, in the data set on zebrafish embryos (Table 2, 1 ng MO, 48 hpf), the “Short body axis (frequency of phenotype)” value amounted to 5.1%, the “Small head/eyes: small eyes” value worked out at 1.2% small eyes and the “Small head/eyes: small heads” value was found to be 6.4% small heads. Further, the “gross embryo phenotype / developmental defects” value in the data set with zebrafish embryos (injected embryos) is reported as “appeared normal”.

In the case of `O=C(CCCCCCC(=O)Nc1ccc([C@H]2O[C@@H](CSc3nc(-c4ccccc4)c(-c4ccccc4)o3)C[C@@H](c3ccc(CO)cc3)O2)cc1)NO` [tubacin], the “inhibition of HDAC6” value at HDAC6 is recorded as “a specific inhibitor”.

In the case of `Nc1nc2c(ncn2[C@@H]2O[C@H](COP(=O)(O)OP(=O)(O)OP(=O)(O)O)[C@@H](O)[C@H]2O)c(=O)[nH]1` [GTP], the “effect on MEC-17 acetylation activity” value in the data set on GST-MmMEC-17 is on record as “stimulated”.

As for `CC(=O)O[C@H]1C(=O)[C@@]2(C)[C@H]([C@H](OC(=O)c3ccccc3)[C@]3(O)C[C@H](OC(=O)[C@H](O)[C@@H](NC(=O)c4ccccc4)c4ccccc4)C(C)=C1C3(C)C)[C@]1(OC(C)=O)CO[C@@H]1C[C@@H]2O` [Paclitaxel, paclitaxel, reference compound], the “effect on MEC-17 acetylation activity” value in the data set on GST-MmMEC-17 was “stimulated”. For the same compound, the “growth of MEC-17-KO cells in medium with drug, compared with wild type” value in data set [1] was “grew faster than wild-type cells”.

As for “MEC-17 SP MP: morpholino 5′-AGAGAAAGCTATTTTACCCGTTCTG-3′ (SEQ ID NO:8); targets the exon3/intron3-4 splice junction of mec17 (all phosphorodiamidate morpholino (PMO))”, the “levels of mec17 mRNA” value in the data set with mec17 mRNA is “severe reduction”. In the data set on zebrafish embryos (Table 1, 1 ng MO, 48 hpf), the “Edema of the heart” value turned out to be 13.2%, the “Hydrocephaly (frequency of phenotype)” value was determined as 33%, the “Lethality (frequency of phenotype)” value was found to be 28% and the “Paralyzed (frequency of phenotype)” value came out at 15%. For the same compound, in the data set on zebrafish embryos (Table 1, 1 ng MO, 48 hpf), the “Reduced mobility (frequency of phenotype)” value is 23.5%, the “Short body axis (frequency of phenotype)” value amounted to 41.5% and the “Small head/eyes (frequency of phenotype)” value is 47.1%.

For “MEC-17 ATG MO: morpholino 5′-CATTCAGGTCGTAAGGGAAATCCAT-3′ (SEQ ID NO:7); targets the translation initiation site of MEC-17 mRNA (all phosphorodiamidate morpholino (PMO))”, in the data set on zebrafish embryos (Table 1, 1 ng MO, 48 hpf), the “Edema of the heart” value amounted to 15.4%, the “Hydrocephaly (frequency of phenotype)” value worked out at 15%, the “Lethality (frequency of phenotype)” value amounted to 7% and the “Paralyzed (frequency of phenotype)” value is 15.4%. Moreover, in the data set with zebrafish embryos (Table 1, 1 ng MO, 48 hpf), the “Reduced mobility (frequency of phenotype)” value was 41.6%, the “Short body axis (frequency of phenotype)” value came to 35.7% and the “Small head/eyes (frequency of phenotype)” value turned out to be 28.5%. For the same compound, in the data set with zebrafish embryos (Table 2, 1 ng MO, 48 hpf), the “Edema of the heart” value was found to be 7.9%, the “Hydrocephaly (frequency of phenotype)” value is 13.8%, the “Lethality (frequency of phenotype)” value is 3.7% and the “Mobility: paralyzed” value stood at 10.1% paralyzed. In the data set with zebrafish embryos (Table 2, 1 ng MO, 48 hpf), the “Mobility: reduced mobility” value turned out to be 17.5% reduced mobility, the “Short body axis (frequency of phenotype)” value turned out to be 27.1%, the “Small head/eyes: small eyes” value was found to be 74.4% small eyes and the “Small head/eyes: small heads” value turned out to be 79.2% small heads.
